How the values were obtained:
[1] = target: T1, full length Keap1 protein / full length NRF2 protein (Homo sapiens, UniProt Q14145); assay: NRF2-Keap1 TR-FRET Low Protein Assay; type: binding; conditions: 1.25 nM Keap1 FlagHis and 2.5 nM biotin-NRF2 added
T1 construct: full length NRF2 protein and full length Keap1 protein (Keap1 exists a dimer) are used; His
In short: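 Flag-tagged full-length Keap1 was preincubated with compound (3-fold series) for 2.25 h at 37 °C in Tris pH 8.0/MgCl2/NaCl/BSA/DTT/CHAPS. Biotin-Avi-NRF2 (added at 2.5 nM) was then bound for 1.25 h at 4 °C. Eu-streptavidin/anti-Flag-APC TR-FRET (665/615 nm) was read after 1 h at RT, and pIC50 came from a four-parameter fit.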

[2] = test system: NQO1 specific enzyme activity in BEAS-2B cells (marker for NRF2 activation); assay: BEAS-2B NQO1 MTT Assay; type: cell-based; conditions: Homo sapiens, compound incubated 48 hours, read-out: EC50 (NQO1 specific enzyme activity induction)
In short: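 BEAS-2B cells treated with compound for 48 h at 37 °C, then lysed; NQO1 activity in lysates measured kinetically by MTT reduction at A570 over 30 min. pEC50 from 3-parameter fit of ΔOD/min versus log concentration; lysate also taken for Cell Titer Glo.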

T1 sequence (Q14145 whole entry): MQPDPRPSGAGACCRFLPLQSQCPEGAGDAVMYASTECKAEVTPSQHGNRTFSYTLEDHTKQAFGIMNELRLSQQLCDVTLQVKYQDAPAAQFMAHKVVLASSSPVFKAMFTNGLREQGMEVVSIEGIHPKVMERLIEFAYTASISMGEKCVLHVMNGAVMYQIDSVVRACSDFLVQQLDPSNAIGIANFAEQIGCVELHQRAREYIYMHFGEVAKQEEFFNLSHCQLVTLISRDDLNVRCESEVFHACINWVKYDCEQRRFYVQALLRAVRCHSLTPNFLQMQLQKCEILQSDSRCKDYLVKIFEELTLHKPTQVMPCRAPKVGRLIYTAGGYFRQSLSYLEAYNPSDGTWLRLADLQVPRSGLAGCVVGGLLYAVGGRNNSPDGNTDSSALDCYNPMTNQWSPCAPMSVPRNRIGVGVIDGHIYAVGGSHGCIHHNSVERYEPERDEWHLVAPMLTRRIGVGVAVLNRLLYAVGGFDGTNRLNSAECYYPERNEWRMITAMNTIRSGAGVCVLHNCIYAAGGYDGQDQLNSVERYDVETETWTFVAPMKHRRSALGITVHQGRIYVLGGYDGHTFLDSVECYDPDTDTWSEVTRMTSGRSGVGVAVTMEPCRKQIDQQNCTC

Row | IC50 [1] | SMILES | EC50 [2]
1 | 0.01 to 0.1 µM | CC(Oc1cccc(-c2cccc(-n3ncc(C(=O)O)c3C3CC3c3cn(C)nn3)c2)c1)C1CCCC1 (stereo not drawn) [Example 228, 1-(3′-(1-Cyclopentylethoxy)-[1,1′-biphenyl]-3-yl)-5-(2-(1-methyl-1H-1,2,3-triazol-4-yl)cyclopropyl)-1H-pyrazole-4-carboxylic acid] | 0.001 to 0.01 µM
2 | 0.01 to 0.1 µM | Cn1cc(C2CC2c2c(C(=O)O)cnn2-c2cccc(-c3cccc(OC4CCCCC4)c3)c2)nn1 (stereo not drawn) [Example 229] | 0.01 to 0.1 µM
3 | 0.01 to 0.1 µM | CC(Oc1cccc(-c2cccc(-n3ncc(C(=O)O)c3C3CC3c3cn(C)nn3)c2)c1)C1CC1 (stereo not drawn) [Example 231, 1-(3′-(1-Cyclopropylethoxy)-[1,1′-biphenyl]-3-yl)-5-(2-(1-methyl-1H-1,2,3-triazol-4-yl)cyclopropyl)-1H-pyrazole-4-carboxylic acid] | 0.1 to 1 µM
4 | 0.01 to 0.1 µM | Cn1cc(C2CC2c2c(C(=O)O)cnn2-c2cccc(-c3cccc(CCC4CCCCC4)c3)c2)nn1 (stereo not drawn) [Example 233, 1-(3′-(2-Cyclohexylethyl)-[1,1′-biphenyl]-3-yl)-5-(2-(1-methyl-1H-1,2,3-triazol-4-yl)cyclopropyl)-1H-pyrazole-4-carboxylic Acid] | 0.001 to 0.01 µM
5 | 0.01 to 0.1 µM | Cn1cc(C2CC2c2c(C(=O)O)cnn2-c2cccc(-c3cccc(OC4CCOCC4)c3F)c2)nn1 (stereo not drawn) [Example 234, 1-(2′-Fluoro-3′-((tetrahydro-2H-pyran-4-yl)oxy)-[1,1′-biphenyl]-3-yl)-5-(2-(1-methyl-1H-1,2,3-triazol-4-yl)cyclopropyl)-1H-pyrazole-4-carboxylic Acid] | 1 to 10 µM
6 | 0.01 to 0.1 µM | CC(Oc1cccc(-c2cccc(-n3ncc(C(=O)O)c3C3CC3c3cn(C)nn3)c2)c1)c1ccccc1 (stereo not drawn) [Example 235, 5-(2-(1-Methyl-1H-1,2,3-triazol-4-yl)cyclopropyl)-1-(3′-(1-phenylethoxy)-[1,1′-biphenyl]-3-yl)-1H-pyrazole-4-carboxylic Acid] | 0.1 to 1 µM
7 | 0.01 to 0.1 µM | Cn1cc(C2CC2c2c(C(=O)O)cnn2-c2cccc(-c3cccc(C(=O)C4CCCCC4)c3)c2)nn1 (stereo not drawn) [Example 243, 1-(3′-(Cyclohexanecarbonyl)-[1,1′-biphenyl]-3-yl)-5-(2-(1-methyl-1H-1,2,3-triazol-4-yl)cyclopropyl)-1H-pyrazole-4-carboxylic Acid] | 0.1 to 1 µM
8 | 0.01 to 0.1 µM | COC(c1cccc(-c2cccc(-n3ncc(C(=O)O)c3C3CC3c3cn(C)nn3)c2)c1)C1CCCCC1 (stereo not drawn) [Example 244, 1-(3′-(Cyclohexyl(methoxy)methyl)-[1,1′-biphenyl]-3-yl)-5-(2-(1-methyl-1H-1,2,3-triazol-4-yl)cyclopropyl)-1H-pyrazole-4-carboxylic acid] | 0.1 to 1 µM

Row | SMILES | IC50 [1] | EC50 [2]
9 | Cn1cc(C2CC2c2c(C(=O)O)cnn2-c2cccc(-c3cccc(OC4CCCN(C(=O)OC(C)(C)C)C4)c3)c2)nn1 (stereo not drawn) [Example 232, 1-(3′-((1-(tert-Butoxycarbonyl)piperidin-3-yl)oxy)-[1,1′-biphenyl]-3-yl)-5-(2-(1-methyl-1H-1,2,3-triazol-4-yl)cyclopropyl)-1H-pyrazole-4-carboxylic acid] | 0.01 to 0.1 µM | 0.1 to 1 µM

Reference: patent US10364256B2 (GlaxoSmithKline Intellectual Property Development Limited, priority 2015, dated 2019)
